Test in all cases: DTP human tumour cell line panel, 48 h
Assay [1] has as its system NCI-H460 lung.
Assay [2] relates to SNB-78 CNS.
Assay [3] relates to HOP-92 NSCLC.
Assay [4] deals with HCC-2998 colon.
Assay [5] relates to SNB-19 CNS.
In assay [6] the test system is UACC-62 melanoma.
Assay [7] has as its system UO-31 renal.
Assay [8] concerns CAKI-1 renal.
The subject of assay [9] is OVCAR-5 ovarian.
The subject of assay [10] is U251 CNS.

TGI data for four compounds are collected here from PubChem BioAssay (NCI).

In general, TGI refers to the concentration at which net growth stops. Low readings indicate more potent growth arrest, high ones less potent growth arrest.

Structures are written as SMILES.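 1) Cells in 96-well plates. 2) Compound, 48 h, 5 concentrations. 3) Linear interpolation between surrounding doses. 4) Unreached endpoint = highest concentration. Definition used: TGI = concentration required for complete inhibition of growth.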

With `COC(=O)C(=O)C(C(=O)C(=O)Nc1ccccc1C(N)=O)c1nc2ccc([N+](=O)[O-])cc2[nH]c1=O` (stereo not given), the concentration for total growth inhibition (TGI) in assay [1], in assay [2], in assay [3], in [4], in assay [5] and in assay [6] was more than 100 µM in each case. Further, the TGI in assay [7], in assay [8], in assay [9] and in assay [10] was more than 100 µM each time.
As for `Cc1ccc(S(=O)OC2c3ccccc3Cc3ccccc32)cc1` (stereo not given), the concentration for total growth inhibition (TGI) came out at 46.2 µM in assay [1]; 46.1 µM in [2]; 36.5 µM in assay [3]; 33.8 µM in [4]; 59 µM in [5]; 31.8 µM in assay [6]. The total growth inhibition concentration (TGI) was determined as 45.7 µM in [7], 56.3 µM in assay [8], 31.7 µM in [9] and 78.5 µM in assay [10].
As to `Cc1cc2c(cc1C)[n+](=O)c(C(=O)CC(=O)C(=O)Nc1ccccc1C)c(C)n2[O-]`, the TGI in [1], in assay [2], in [3], in assay [4], in assay [5] and in assay [6] was more than 100 µM in each case. The TGI in assay [7], in [8], in assay [9] and in assay [10] was more than 100 µM each time.
For the compound `S=c1sc2sc(=S)sc2s1`, the TGI is 47.7 µM in assay [1]; more than 100 µM in assay [2]; more than 100 µM in assay [3]; more than 100 µM in assay [4]; more than 100 µM in assay [5]; more than 100 µM in assay [6]. Besides, the TGI in assay [7] is 81.8 µM; in assay [8] it was more than 100 µM; in assay [9], 40.2 µM; in assay [10] it was 49 µM.
